We go through five molecules from patent US12594267B2, “Capsid inhibitors for the treatment of HIV” (Gilead Sciences, Inc., priority 2018, dated 2026).

Broadly, the EC50 is the concentration at which the effect is half-maximal.

Holding throughout (assay type): cell-based, HIV-1
In experiment [1] the test system is WT HXB2D. Briefly: Cytopathic antiviral assay in MT-2 cells, wild type HXB2D. As to conditions: Human immunodeficiency virus 1, MT2, read-out: WT HXB2D EC50, MT-2 cells, mean ± s.d. of three experiments in triplicate. Here is the method:
(§1) The antiviral activity of the compound of Formula (a) was tested against a panel of known HIV-1 mutants resistant to HIV PIs (ATV and DRV), NRTIs (TFV and FTC), NNRTIs (RPV and EFV) or INSTIs (RAL, EVG and DTG) using a cytopathic antiviral assay in MT-2 cells. The compound of Formula (Ia) was fully active against all tested mutants resistant to PIs (Table 11), NRTIs (Table 12), NNRTIs (Table 13) or INSTIs (Table 14).
A general note: Protection from cytopathic effect is a common read-out in antiviral testing.

In experiment [2] the test system is PI-resistant viruses. Description: Cytopathic antiviral assay in MT-2 cells, PI-resistant viruses. As to conditions: Mutant/WT (HXB2D) EC50 ratio, mean ± s.d. of three experiments. How it is done:
as §1

In experiment [3] the test system is INSTI-resistant viruses. Briefly: Cytopathic antiviral assay in MT-2 cells, INSTI-resistant viruses. The conditions noted are these: Mutant/WT (HXB2D) EC50 ratio, mean ± s.d. of three experiments. How it is done: as §1
The test system of experiment [4] is NNRTI-resistant viruses. Description: Cytopathic antiviral assay in MT-2 cells, NNRTI-resistant viruses. As to conditions: Mutant/WT (HXB2D) EC50 ratio, mean ± s.d. of three experiments. Here is the method: as §1
The test system of experiment [5] is NRTI-resistant viruses. As to conditions: Mutant/WT (LAI) EC50 ratio, MT-2 cells, mean ± s.d. of three experiments. How it is done: The antiviral activity of the compound of Formula (a) was tested against a panel of known HIV-1 mutants resistant to HIV PIs (ATV and DRV), NRTIs (TFV and FTC), NNRTIs (RPV and EFV) or INSTIs (RAL, EVG and DTG) using a cytopathic antiviral assay in MT-2 cells.

The mark [6] stands for this setting: INSTI-resistance panel (Table 14).
[7] abbreviates: NNRTI-resistance panel (Table 13).

Like-named read-outs stand apart in the source and are kept apart here.

In the case of `CC(C)CN(C[C@@H](O)[C@H](Cc1ccccc1)NC(=O)O[C@H]1CO[C@H]2OCC[C@H]21)S(=O)(=O)c1ccc(N)cc1` [DRV, darunavir], the EC50 in experiment [1] (PI-resistance panel (Table 11)) came out at 2.82 ± 0.47 nM. For the same molecule, the “EC50 Fold-Change” value in experiment [2] (G48V/V82A/L90M) was found to be 0.5 ± 0.2; in experiment [2] (G48V/V82S), 0.3 ± 0.1; in experiment [2] (I50V), 31.6 ± 22.8; in experiment [2] (I84V/L90M), 1.9 ± 0.9.
Regarding `O=C1Nc2ccc(Cl)cc2[C@@](C#CC2CC2)(C(F)(F)F)O1` [EFV, efavirenz], the 50% effective concentration (EC50) is 1.37 ± 0.51 nM in experiment [1] (setting [6]), 2.23 ± 0.18 nM in experiment [1] (setting [7]) and 1.64 ± 0.55 nM in experiment [1] (PI-resistance panel (Table 11)). The “EC50 Fold-Change” value came out at 1.2 ± 0.6 in experiment [3] (E92Q/N155H); 0.7 ± 0.3 in experiment [3] (E138K/Q148K); 1.0 ± 0.3 in experiment [3] (G140S/Q148R); 1.1 ± 0.5 in experiment [3] (N155H/Q148R); 1.3 ± 0.9 in experiment [3] (R263K/M50I); 0.9 ± 0.6 in experiment [3] (Y143R). For the same molecule, the “EC50 Fold-Change” value in experiment [2] (G48V/V82A/L90M) is on record as 0.9 ± 0.4; in experiment [2] (G48V/V82S), 0.7 ± 0.1; in experiment [2] (I50V), 3.0 ± 0.9; in experiment [2] (I84V/L90M) it was 0.4 ± 0.1; in experiment [4] (K103N) it was 14.2 ± 2.7; in experiment [4] (K103N/Y181C), over 22.4. The “EC50 Fold-Change” value in experiment [4] (L100I/K103N) is listed as over 22.4; in experiment [4] (Y181C) it was 3.3 ± 2.5; in experiment [4] (Y188L) it was over 22.4.
Take `Cc1nnc(C(=O)NC(C)(C)c2nc(C(=O)NCc3ccc(F)cc3)c(O)c(=O)n2C)o1` [RAL, raltegravir]: the EC50 in experiment [1] (setting [6]) worked out at 6.41 ± 2.15 nM. The “EC50 Fold-Change” value was over 15.6 in experiment [3] (E92Q/N155H); over 15.6 in experiment [3] (E138K/Q148K); over 15.6 in experiment [3] (G140S/Q148R); 13.9 ± 2.2 in experiment [3] (N155H/Q148R); 1.6 ± 1.2 in experiment [3] (R263K/M50I); 10.1 ± 1.2 in experiment [3] (Y143R).
With `Cc1cc(/C=C/C#N)cc(C)c1Nc1ccnc(Nc2ccc(C#N)cc2)n1` [RPV, rilpivirine], the EC50 in experiment [1] (setting [7]) is 0.93 ± 0.23 nM. In addition, the “EC50 Fold-Change” value in experiment [4] (K103N) was determined as 0.7 ± 0.3; in experiment [4] (K103N/Y181C), 3.2 ± 1.4; in experiment [4] (L100I/K103N), 7.8 ± 2.6; in experiment [4] (Y181C), 5.9 ± 4.3; in experiment [4] (Y188L) it was 6.9 ± 1.3.
As to `C[C@H](Cn1cnc2c(N)ncnc21)OCP(=O)(O)O` [TFV, tenofovir], the “EC50 Fold-Change” value in experiment [5] (6TAMs) is on record as 3.0 ± 1.1; in experiment [5] (K65R), 2.4 ± 1.0; in experiment [5] (M184V) it was 0.9 ± 1.0.
